Read-outs that look alike come from different tables or passages of the source.
How the values were obtained:
G-CSF = test: Serum cytokine induction in mice (G-CSF screen); assay type: in vivo, BALB/c mice
Text: No. MKC00B) • IL-18 (R&D Systems, Cat. […] Systems, Cat. No. […])

CT26 cells = test: CT26 cell viability; assay type: cell-based
MB49 tumor = test: MB49 efficacy studies; assay type: in vivo, C57BL/6 mice; conditions: celecoxib alone, various concentrations
MV4;11 cells = test: Cell line drug sensitivity (CellTiter-Glo); assay type: cell-based; conditions: Homo sapiens, MV4-11, 48 h
MOLM-13 cells = test: Cell line drug sensitivity (CellTiter-Glo); assay type: cell-based; conditions: Homo sapiens, MOLM-13, 48 h
Description: (§1) SET-2, RS4;11, and SKM-1 cells were purchased from DSMZ. HL-60, MV4;11, OCI-AML2, NB4, MOLM-13, NOMO-1, DAOY, HEL, IMR-5, K562, Kasumi-1, ONS-76, RDES-1, and TC-71 cells were a gift from Alex Kentsis and verified using STR genotyping (Genetica). […] MCF-7, Jurkat, THP-1, U937, HL-60, MV4;11, OCI-AML2, NB4, MOLM-13, NOMO-1, HEL, K562, SET-2, RS4;11, SKM-1 and Kasumi-1 were grown in RPMI-1640 medium with 10% FBS. All cells were grown at 37° C. in a 5% CO2 incubator. Cell lines were tested for mycoplasma using the MycoAlert Mycoplasma Detection Kit (Lonza).
(§2) Cells were plated (2000 cells/well) in white, 384-well clear bottom plates using an EL406 Microplate Washer/Dispenser (BioTek) in 25 μL final volume of media. Compounds were added using a pintool (CyBio) and cells were incubated for 48 h at 37° C. Assay plates were then removed from the incubator and allowed to equilibrate to room temperature on the bench top before addition of 10 μL of CellTiter-Glo reagent (Promega) according to the manufacturer's instructions. Assay plates were shaken on an orbital shaker for 2 minutes and incubated at room temperature on the bench top for 10 minutes. Luminescence was then read using a Cytation 5 Cell Imaging Multi-Mode Reader (BioTek). (FIG. 6)

OCI-AML3 cells = test: Cell line drug sensitivity (CellTiter-Glo); assay type: cell-based; conditions: Homo sapiens, OCI-AML-3, 48 h
Description: as §1, §2

Jurkat cells = test: Cell line drug sensitivity (CellTiter-Glo); assay type: cell-based; conditions: Homo sapiens, 48 h
Description: as §1, §2

U937 cells = test: Cell line drug sensitivity (CellTiter-Glo); assay type: cell-based; conditions: Homo sapiens, U-937, 48 h
Description: as §1, §2

NOMO-1 cells = test: Cell line drug sensitivity (CellTiter-Glo); assay type: cell-based; conditions: Homo sapiens, NOMO-1, 48 h
Description: as §1, §2

K562 cells = test: Cell line drug sensitivity (CellTiter-Glo); assay type: cell-based; conditions: Homo sapiens, K562, 48 h
Description: as §1, §2

Kasumi-1 cells = test: Cell line drug sensitivity (CellTiter-Glo); assay type: cell-based; conditions: Homo sapiens, Kasumi 1, 48 h
Description: as §1, §2

ONS-76 cells = test: Cell line drug sensitivity (CellTiter-Glo); assay type: cell-based; conditions: Homo sapiens, ONS-76, 48 h
Description: as §1, §2

SKM-1 cells = test: Cell line drug sensitivity (CellTiter-Glo); assay type: cell-based; conditions: Homo sapiens, SKM-1, 48 h
Description: as §1, §2

THP-1 cells = test: Cell line drug sensitivity (CellTiter-Glo); assay type: cell-based; conditions: Homo sapiens, THP-1, 48 h
Description: as §1, §2

DAOY cells = test: Cell line drug sensitivity (CellTiter-Glo); assay type: cell-based; conditions: Homo sapiens, Daoy, 48 h
Description: as §1, §2

MCF7 cells = test: Cell line drug sensitivity (CellTiter-Glo); assay type: cell-based; conditions: Homo sapiens, MCF7, 48 h
Description: as §1, §2

HL-60 cells = test: Cell line drug sensitivity (CellTiter-Glo); assay type: cell-based; conditions: Homo sapiens, HL-60, 48 h
Description: as §1, §2

HEL cells = test: Cell line drug sensitivity (CellTiter-Glo); assay type: cell-based; conditions: Homo sapiens, 48 h
Description: as §1, §2

IMR-5 cells = test: Cell line drug sensitivity (CellTiter-Glo); assay type: cell-based; conditions: Homo sapiens, IMR-5, 48 h
Description: as §1, §2

KG-1 cells = test: Cell line drug sensitivity (CellTiter-Glo); assay type: cell-based; conditions: Homo sapiens, KG-1, 48 h
Description: as §1, §2

HT-1080 cells = test: Cell line drug sensitivity (CellTiter-Glo); assay type: cell-based; conditions: Homo sapiens, HT-1080, 48 h
Description: as §1, §2

SET-2 cells = test: Cell line drug sensitivity (CellTiter-Glo); assay type: cell-based; conditions: Homo sapiens, SET-2, 48 h
Description: as §1, §2

RDES-1 cells = test: Cell line drug sensitivity (CellTiter-Glo); assay type: cell-based; conditions: 48 h
Description: as §1, §2

TC-71 cells = test: Cell line drug sensitivity (CellTiter-Glo); assay type: cell-based; conditions: TC-71, 48 h
Description: as §1, §2

NB4 cells = test: Cell line drug sensitivity (CellTiter-Glo); assay type: cell-based; conditions: Homo sapiens, NB-4, 48 h
AML cell lines = test: AML cell line sensitivity, summary over the panel; assay type: cell-based; conditions: all of these lines
Description: as §1, §2

RS4;11 cells = test: Cell line drug sensitivity (CellTiter-Glo); assay type: cell-based; conditions: Homo sapiens, RS4-11, 48 h

Question: How did the “Average [G-CSF] at 6 hrs” value (G-CSF; 20 μg/animal PO) turn out when `C[C@H](N)C(=S)N1CCC[C@H]1B(O)O` [ARI-2243] was run?
Answer: 330 pg/mL

Question: What about the “Average [G-CSF] at 6 hrs” value (G-CSF; 50 μg/animal IP) of the same molecule?
Answer: 2100 pg/mL

Question: And the “Average [G-CSF] at 6 hrs” value (G-CSF; 100 μg/animal IP)?
Answer: 2400 pg/mL

Question: And the “Average [G-CSF] at 6 hrs” value (G-CSF; 300 μg/animal IP)?
Answer: 4400 pg/mL

Question: What about the EC50 (CT26 cells) of the same molecule?
Answer: > 1000 µM

Question: With `Cc1ccc(-c2cc(C(F)(F)F)nn2-c2ccc(S(N)(=O)=O)cc2)cc1` [celecoxib] as the molecule, how does the Tumor growth rate (MB49 tumor) read?
Answer: no observed differences in tumor growth rates compared to control

Question: For `N[C@@H](CCC(=O)O)C(=O)N1CCC[C@H]1B(O)O` [Glu-boroPro], which “Average [G-CSF] at 6 hrs” value (G-CSF; 20 μg/animal PO) is on record?
Answer: 340 pg/mL

Question: And the “Average [G-CSF] at 6 hrs” value (G-CSF; 200 μg/animal PO)?
Answer: 160 pg/mL

Question: And the “Average [G-CSF] at 6 hrs” value (G-CSF; 200 μg/animal SC)?
Answer: 210 pg/mL

Question: And the “Average [G-CSF] at 6 hrs” value (G-CSF; 2000 μg/animal PO)?
Answer: 2300 pg/mL

Question: What about the “Average [G-CSF] at 6 hrs” value (G-CSF; 2000 μg/animal SC) of the same molecule?
Answer: 16000 pg/mL

Question: And the EC50 (CT26 cells)?
Answer: > 1000 µM

Question: Which IC50 (MV4;11 cells) does the source give for `CC1([C@H](N)C(=O)N2CCC[C@H]2B(O)O)CCCCC1` (relative stereo) [ARI-4175CH] here?
Answer: 0.003 µM

Question: What about the IC50 (MOLM-13 cells) of the same molecule?
Answer: 0.006 µM

Question: And the IC50 (OCI-AML3 cells)?
Answer: 0.003 µM

Question: And the IC50 (Jurkat cells)?
Answer: > 60 µM

Question: What about the IC50 (U937 cells) of the same molecule?
Answer: > 60 µM

Question: And the IC50 (NOMO-1 cells)?
Answer: 0.004 µM

Question: What about the IC50 (K562 cells) of the same molecule?
Answer: > 60 µM

Question: What about the IC50 (Kasumi-1 cells) of the same molecule?
Answer: > 60 µM

Question: And the IC50 (ONS-76 cells)?
Answer: > 60 µM

Question: What about the IC50 (SKM-1 cells) of the same molecule?
Answer: 0.001 µM

Question: What about the IC50 (THP-1 cells) of the same molecule?
Answer: 0.006 µM

Question: What about the IC50 (DAOY cells) of the same molecule?
Answer: > 60 µM

Question: What about the IC50 (MCF7 cells) of the same molecule?
Answer: > 60 µM

Question: What about the IC50 (HL-60 cells) of the same molecule?
Answer: 0.003 µM

Question: What about the IC50 (HEL cells) of the same molecule?
Answer: > 60 µM

Question: What about the IC50 (IMR-5 cells) of the same molecule?
Answer: > 60 µM

Question: And the IC50 (KG-1 cells)?
Answer: 0.049 µM

Question: What about the IC50 (HT-1080 cells) of the same molecule?
Answer: > 60 µM

Question: And the IC50 (SET-2 cells)?
Answer: 0.001 µM

Question: And the IC50 (RDES-1 cells)?
Answer: > 60 µM

Question: And the IC50 (TC-71 cells)?
Answer: > 60 µM

Question: What about the IC50 (NB4 cells) of the same molecule?
Answer: 0.003 µM

Question: And the “IC50 values over the sensitive AML cell lines” value (AML cell lines)?
Answer: low (single digit) nanomolar

Question: And the EC50 (CT26 cells; Mus musculus, CT26)?
Answer: > 1000 µM

Question: And the IC50 (RS4;11 cells)?
Answer: 0.013 µM

Question: What does the source list for `N[C@@H](CC(=O)N1CCn2c(nnc2C(F)(F)F)C1)Cc1cc(F)c(F)cc1F` [Sitagiptin, Sitagliptin]?
Answer: Average [G-CSF] at 6 hrs (G-CSF; 200 μg/animal SC): 100 pg/mL; Average [G-CSF] at 6 hrs (G-CSF; 1000 μg/animal PO): 340 pg/mL; Average [G-CSF] at 6 hrs (G-CSF; 2000 μg/animal SC): 950 pg/mL
